The source of these data is BindingDB's records for patent US11649233 (Nanjing Transthera Biosciences, 2023).

In the experiment the target is T1, Amine oxidase [copper-containing] 3 (Homo sapiens, UniProt Q16853).
T1 sequence (Q16853 whole entry): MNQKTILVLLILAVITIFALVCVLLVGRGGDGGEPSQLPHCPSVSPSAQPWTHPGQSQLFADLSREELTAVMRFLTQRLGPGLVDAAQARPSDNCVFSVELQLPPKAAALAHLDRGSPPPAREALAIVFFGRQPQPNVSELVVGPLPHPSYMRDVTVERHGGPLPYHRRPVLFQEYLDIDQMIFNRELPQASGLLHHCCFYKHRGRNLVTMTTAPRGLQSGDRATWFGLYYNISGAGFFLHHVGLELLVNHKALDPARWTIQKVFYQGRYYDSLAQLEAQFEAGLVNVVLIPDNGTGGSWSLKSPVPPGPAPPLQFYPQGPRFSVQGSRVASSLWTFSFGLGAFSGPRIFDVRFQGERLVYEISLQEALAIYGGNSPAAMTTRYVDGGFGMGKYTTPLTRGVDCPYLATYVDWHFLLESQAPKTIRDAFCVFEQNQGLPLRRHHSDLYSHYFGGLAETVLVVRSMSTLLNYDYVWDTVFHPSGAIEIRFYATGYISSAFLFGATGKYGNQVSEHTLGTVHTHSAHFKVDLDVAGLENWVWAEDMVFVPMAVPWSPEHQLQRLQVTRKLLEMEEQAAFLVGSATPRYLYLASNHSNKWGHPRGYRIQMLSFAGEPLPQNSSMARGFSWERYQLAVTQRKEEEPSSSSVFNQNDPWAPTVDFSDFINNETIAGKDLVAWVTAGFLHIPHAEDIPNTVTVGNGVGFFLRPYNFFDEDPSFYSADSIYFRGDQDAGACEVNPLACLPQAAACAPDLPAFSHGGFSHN
Description: Inhibition Activity of the Compound on rhVAP-1 and MAO-A/B. On the procedure:
Test substances: the compounds of the present invention shown in Table 1 and prepared according to the methods of the examples 1. Inhibition Activity of the Compounds on the rhVAP-1 Enzyme (1) Instrument, consumable and reagent Multifunctional microplate reader (MD, FlexStation 3), black bottom-impermeable 96-well plate (Corning), rhVAP-1 (PeproTech) (2) Preparation of Compound Concentration Gradient Solutions An appropriate amount of the test compound was dissolved in DMSO to 10 mM and stored. Before the experiment, an appropriate amount of 10 mM test compound mother liquor was diluted to 10 μM solution with DMSO. Then 3-fold gradient dilution with DMSO was performed, and 10 concentration gradients were formed.(3) Preparation of Enzyme Solutions. An appropriate amount of protein diluent was added to the rhVAP-1 powder to obtain 1 mg/mL of the mother liquor for storage. […] Then 50 μL of 2×substrate mixed solution was added to each well, and immediately the detection was performed with the microplate reader in a condition of an exciting light at 565 nm, an emitting light at 590 nm, the fluorescence intensity for detecting each well of 5 minutes/run, and a total detection time of 25 minutes.

On to `CC(C)N1CCc2cc(OC/C(=C/F)CN)ccc2C1=O` [US11649233, Compound 4], for which the IC50 – broadly, the concentration at which inhibition is half-maximal – was 59 nM. This lies in the double-digit nanomolar range.
